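Assay format: 96-well plates, 48-hour exposure. The concentration for 50% growth inhibition is given as GI50.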 Calls of active or inactive are those of the source. Cut-off read from the data, not from the text of the source: active = GI50 up to about 1.1 µM and inactive = higher.
Legend:
Experiment in all cases: growth of human tumour cells (NCI), 48 h
[1] = system: A549
[2] = system: ACHN
[3] = system: DU-145
[4] = system: EKVX
[5] = system: HCC 2998
[6] = system: HCT-116
[7] = system: HT-29
[8] = system: IGROV-1
[9] = system: M14
[10] = system: MCF7
[11] = system: MDA-N
[12] = system: NCI-H23
[13] = system: SF-295
[14] = system: SK-MEL-2
[15] = system: SK-MEL-5
[16] = system: SK-OV-3
[17] = system: UACC-62
[18] = system: HL-60
[19] = system: T47D

Measured: GI50

CCCCCCCCCCCCCCCCOCC(CC(F)(F)P(=O)(OCC)OCC)OC(C)=O (centres undefined)
inactive: [1] 12 µM | [2] 13.9 µM | [3] 15.4 µM | [4] 21.7 µM | [5] 8.69 µM | [6] 3.17 µM | [7] 14.9 µM | [8] 8.49 µM | [9] 17.9 µM | [10] 15.8 µM | [11] 16.9 µM | [12] 16.9 µM | [13] 11.6 µM | [14] 19.6 µM | [15] 21.1 µM | [16] 19.6 µM | [17] 15.3 µM

N#CC(/N=N/c1ccccc1C(=O)O)C(N)=O (centres undefined)
inactive: [1] > 100 µM | [2] 68.7 µM | [3] > 100 µM | [4] > 100 µM | [6] > 100 µM | [18] > 100 µM | [7] > 100 µM | [9] > 100 µM | [11] > 100 µM | [12] > 100 µM | [13] > 100 µM | [14] > 100 µM | [15] > 100 µM | [19] > 100 µM | [17] > 100 µM

O=S(=O)(O)c1ccc(O)c2ncc(Cl)cc12
inactive: [1] > 100 µM | [2] > 100 µM | [3] > 100 µM | [4] > 100 µM | [5] > 100 µM | [6] > 100 µM | [7] > 100 µM | [8] > 100 µM | [9] > 100 µM | [10] > 100 µM | [11] > 100 µM | [12] > 100 µM | [13] > 100 µM | [14] > 100 µM | [15] > 100 µM | [19] > 100 µM | [17] > 100 µM

N#CI1OC(=O)c2ccccc21
inactive: [1] > 100 µM | [2] > 100 µM | [3] > 100 µM | [4] > 100 µM | [5] > 100 µM | [6] > 100 µM | [18] 59.6 µM | [7] > 100 µM | [8] > 100 µM | [9] > 100 µM | [10] 60.7 µM | [12] > 100 µM | [13] > 100 µM | [14] > 100 µM | [15] > 100 µM | [16] > 100 µM | [19] > 100 µM | [17] > 100 µM

CCOC(=O)/C(C#N)=C/Nc1c(C)n(C)n(-c2ccccc2)c1=O
inactive: [1] > 100 µM | [2] > 100 µM | [3] > 100 µM | [4] > 100 µM | [5] > 100 µM | [6] > 100 µM | [18] > 100 µM | [8] > 100 µM | [9] > 100 µM | [10] > 100 µM | [11] > 100 µM | [12] > 100 µM | [13] > 100 µM | [14] > 100 µM | [15] > 100 µM | [16] > 100 µM | [17] > 100 µM
